From patent US9637469B2, “Pyridine derivative” (Teijin Pharma Limited, priority 2012, dated 2017)

Target: T1, human URAT1 (Homo sapiens, UniProt Q96S37)
T1 construct: Full-length cDNA of human URAT1 (hURAT1)
T1 sequence (Q96S37 1-553): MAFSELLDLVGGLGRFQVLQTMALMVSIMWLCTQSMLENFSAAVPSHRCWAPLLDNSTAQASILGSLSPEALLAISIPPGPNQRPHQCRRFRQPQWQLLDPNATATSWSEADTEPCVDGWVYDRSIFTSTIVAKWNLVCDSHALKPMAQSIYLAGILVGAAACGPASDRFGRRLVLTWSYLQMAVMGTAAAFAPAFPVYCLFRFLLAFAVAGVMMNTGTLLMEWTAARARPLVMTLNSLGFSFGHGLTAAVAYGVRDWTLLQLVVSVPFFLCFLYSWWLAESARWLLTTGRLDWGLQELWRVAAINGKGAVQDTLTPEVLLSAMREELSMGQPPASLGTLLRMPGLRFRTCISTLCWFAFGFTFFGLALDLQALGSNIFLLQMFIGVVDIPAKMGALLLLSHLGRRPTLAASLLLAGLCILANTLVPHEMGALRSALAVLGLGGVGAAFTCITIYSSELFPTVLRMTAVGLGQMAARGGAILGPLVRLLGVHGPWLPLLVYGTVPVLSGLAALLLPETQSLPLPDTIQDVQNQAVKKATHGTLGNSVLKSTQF
Assay: Test for inhibition of uric acid transport using human URAT1-expressing cells;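 also: three stars up to 0.2 µM two stars 0.2-2 µM one star 2-20 µM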
Format: cell-based
Conditions: HEK 293 cells expressing human URAT1, 14C-labeled uric acid 25 μM, uptake 37° C. for 5 min; for IC50: read-out: Inhibitory Activity (IC50 of uric acid transport inhibition)
Method in brief: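 IC50 values reflect inhibition of ¹⁴C-uric acid uptake (25 μM final, 5 min, 37 °C) by compound. Cells were HEK293 stably expressing full-length human URAT1, preincubated in Na-gluconate-substituted HBSS. Radioactivity in lysates was expressed relative to DMSO control as 100%.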

SMILES	Inhibitory Activity (IC50 of uric acid transport inhibition)	IC50
COc1ncccc1-c1nc(C)c(C(=O)O)n1Cc1cc(Cl)ccc1Cl [Compound A162, 1-(2,5-dichlorobenzyl)-2-(2-methoxypyridin-3-yl)-4-methyl-1H-imidazole-5-carboxylic acid]	* *	
Cc1nc(-c2ccc(N(C)C)nc2)n(Cc2cc(Cl)ccc2Cl)c1C(=O)O [Compound A163]		2 to 20 µM
Cc1nc(-c2ccc(Cl)nc2)n(Cc2cc(Cl)ccc2Cl)c1C(=O)O [Compound A164, 2-(6-chloropyridin-3-yl)-1-(2,5-dichlorobenzyl)-4-methyl-1H-imidazole-5-carboxylic acid]	* *	
Cc1nc(-c2cncc([S+](C)(=O)[O-])c2)n(Cc2cc(Cl)ccc2Cl)c1C(=O)O [Compound A165]		2 to 20 µM
Cc1nc(-c2cncc(N3CCCC3)c2)n(Cc2cc(Cl)ccc2Cl)c1C(=O)O [Compound A166, 1-(2,5-dichlorobenzyl)-4-methyl-2-(5-(pyrrolidin-1-yl)pyridin-3-yl)-1H-imidazole-5-carboxylic acid]	* * *	
Cc1nc(-c2cncc([N+](=O)[O-])c2)n(Cc2cc(Cl)ccc2Cl)c1C(=O)O [Compound A167, 1-(2,5-dichlorobenzyl)-4-methyl-2-(5-nitropyridin-3-yl)-1H-imidazole-5-carboxylic acid]	* * *	
Cc1nc(-c2cncc(C3CC3)c2)n(Cc2cc(Cl)ccc2Cl)c1C(=O)O [Compound A168, 2-(5-cyclopropylpyridin-3-yl)-1-(2,5-dichlorobenzyl)-4-methyl-1H-imidazole-5-carboxylic acid]	* * *	
Cc1nc(-c2cncc(F)c2)n(Cc2cc(C(F)(F)F)ccc2C(F)(F)F)c1C(=O)O [Compound A170, 1-(2,5-bis(trifluoromethyl)benzyl)-2-(5-fluoropyridin-3-yl)-4-methyl-1H-imidazole-5-carboxylic acid]	* *	
O=C(O)c1cnc(-c2cncc(F)c2)n1Cc1cc(Cl)ccc1Cl [Compound A171, 1-(2,5-dichlorobenzyl)-2-(5-fluoropyridin-3-yl)-1H-imidazole-5-carboxylic acid]	* * *	
Cc1nc(-c2cncc(O)c2)n(Cc2cc(Cl)ccc2Cl)c1C(=O)O [Compound A172, 1-(2,5-dichlorobenzyl)-2-(5-hydroxypyridin-3-yl)-4-methyl-1H-imidazole-5-carboxylic acid]	* *	
Cc1nc(-c2cncc(Cl)c2)n(Cc2cc(C(F)(F)F)ccc2C(F)(F)F)c1C(=O)O [Compound A173, 1-(2,5-bis(trifluoromethyl)benzyl)-2-(5-chloropyridin-3-yl)-4-methyl-1H-imidazole-5-carboxylic acid]	* * *	
CCOc1cncc(-c2nc(C)c(C(=O)O)n2Cc2cc(Cl)ccc2Cl)c1 [Compound A174, 1-(2,5-dichlorobenzyl)-2-(5-ethoxypyridin-3-yl)-4-methyl-1H-imidazole-5-carboxylic acid]	* * *	
Cc1nc(-c2cncc(OC(C)C)c2)n(Cc2cc(Cl)ccc2Cl)c1C(=O)O [Compound A175, 1-(2,5-dichlorobenzyl)-2-(5-isopropoxypyridin-3-yl)-4-methyl-1H-imidazole-5-carboxylic acid]	* *	
Cc1nc(-c2cncc(-c3ccccc3)c2)n(Cc2cc(Cl)ccc2Cl)c1C(=O)O [Compound A176, 1-(2,5-dichlorobenzyl)-4-methyl-2-(5-phenylpyridin-3-yl)-1H-imidazole-5-carboxylic acid]	* * *	
Cc1nc(-c2cncc(Br)c2)n(Cc2cc(Cl)ccc2Cl)c1C(=O)O [Compound A177, 2-(5-bromopyridin-3-yl)-1-(2,5-dichlorobenzyl)-4-methyl-1H-imidazole-5-carboxylic acid]	* * *	
Cc1ccc(C)c(Cn2c(-c3cncc(F)c3)nc(C)c2C(=O)O)c1 [Compound A178, 1-(2,5-dimethylbenzyl)-2-(5-fluoropyridin-3-yl)-4-methyl-1H-imidazole-5-carboxylic acid]	* *	
Cc1ccc(C)c(Cn2c(-c3cncc(Cl)c3)nc(C)c2C(=O)O)c1 [Compound A179, 2-(5-chloropyridin-3-yl)-1-(2,5-dimethylbenzyl)-4-methyl-1H-imidazole-5-carboxylic acid]	* * *	

SMILES	Inhibitory Activity (IC50 of uric acid transport inhibition)	IC50
Cc1cncc(-c2nc(C)c(C(=O)O)n2Cc2cc(C)ccc2C)c1 [Compound A180, 1-(2,5-dimethylbenzyl)-4-methyl-2-(5-methylpyridin-3-yl)-1H-imidazole-5-carboxylic acid]	* * *	
CCc1cncc(-c2nc(C)c(C(=O)O)n2Cc2cc(Cl)ccc2Cl)c1 [Compound A181, 1-(2,5-dichlorobenzyl)-2-(5-ethylpyridin-3-yl)-4-methyl-1H-imidazole-5-carboxylic acid]	* * *	
CSc1cncc(-c2nc(C)c(C(=O)O)n2Cc2cc(Cl)ccc2Cl)c1 [Compound A182, 1-(2,5-dichlorobenzyl)-4-methyl-2-(5-(methylthio)pyridin-3-yl)-1H-imidazole-5-carboxylic acid]	* * *	
CC(=O)c1cncc(-c2nc(C)c(C(=O)O)n2Cc2cc(Cl)ccc2Cl)c1 [Compound A183, 2-(5-acetylpyridin-3-yl)-1-(2,5-dichlorobenzyl)-4-methyl-1H-imidazole-5-carboxylic acid]	* * *	
COc1cccc(F)c1Oc1cncc(-c2nc(C)c(C(=O)O)n2Cc2cc(Cl)ccc2Cl)c1 [Compound A184]		2 to 20 µM
CCCOc1cncc(-c2nc(C)c(C(=O)O)n2Cc2cc(Cl)ccc2Cl)c1 [Compound A185, 1-(2,5-dichlorobenzyl)-4-methyl-2-(5-propoxypyridin-3-yl)-1H-imidazole-5-carboxylic acid]	* * *	
Cc1nc(-c2cncc(OCCO)c2)n(Cc2cc(Cl)ccc2Cl)c1C(=O)O [Compound A186]		2 to 20 µM
Cc1nc(-c2cncc(OCCCO)c2)n(Cc2cc(Cl)ccc2Cl)c1C(=O)O [Compound A187]		2 to 20 µM
Cc1nc(-c2cncc(OCC(C)C)c2)n(Cc2cc(Cl)ccc2Cl)c1C(=O)O [Compound A188, 1-(2,5-dichlorobenzyl)-2-(5-isobutoxypyridin-3-yl)-4-methyl-1H-imidazole-5-carboxylic acid]	* * *	
Cc1nc(-c2cncc(OCC3CCCCC3)c2)n(Cc2cc(Cl)ccc2Cl)c1C(=O)O [Compound A189, 2-(5-(cyclohexylmethoxy)pyridin-3-yl)-1-(2,5-dichlorobenzyl)-4-methyl-1H-imidazole-5-carboxylic acid]	* *	
Cc1nc(-c2cncc(OCc3ccccc3)c2)n(Cc2cc(Cl)ccc2Cl)c1C(=O)O [Compound A190, 2-(5-(benzyloxy)pyridin-3-yl)-1-(2,5-dichlorobenzyl)-4-methyl-1H-imidazole-5-carboxylic acid]	* *	
O=C(O)c1c(CO)nc(-c2cncc(Cl)c2)n1Cc1cc(Cl)ccc1Cl [Compound A191, 2-(5-chloropyridin-3-yl)-1-(2,5-dichlorobenzyl)-4-(hydroxymethyl)-1H-imidazole-5-carboxylic acid]	* * *	
CN(C)Cc1nc(-c2cncc(Cl)c2)n(Cc2cc(Cl)ccc2Cl)c1C(=O)O [Compound A192, 2-(5-chloropyridin-3-yl)-1-(2,5-dichlorobenzyl)-4-((dimethylamino)methyl)-1H-imidazole-5-carboxylic acid]	* *	
CCN(CC)Cc1nc(-c2cncc(Cl)c2)n(Cc2cc(Cl)ccc2Cl)c1C(=O)O [Compound A193, 2-(5-chloropyridin-3-yl)-1-(2,5-dichlorobenzyl)-4-((diethylamino)methyl)-1H-imidazole-5-carboxylic acid]	* * *	
O=C(O)c1c(CN2CCCC2)nc(-c2cncc(Cl)c2)n1Cc1cc(Cl)ccc1Cl [Compound A194, 2-(5-chloropyridin-3-yl)-1-(2,5-dichlorobenzyl)-4-(pyrrolidin-1-ylmethyl)-1H-imidazole-5-carboxylic acid]	* * *	
O=C(O)c1c(CN2CCCCC2)nc(-c2cncc(Cl)c2)n1Cc1cc(Cl)ccc1Cl [Compound A195, 2-(5-chloropyridin-3-yl)-1-(2,5-dichlorobenzyl)-4-(piperidin-1-ylmethyl)-1H-imidazole-5-carboxylic acid]	* * *	
